Experimental data reported in US5814634A, “Alkylenediamine derivative anti-ulcer drug and antibacterial drug” (Shiseido Co. Ltd., priority 1996, dated 1998).

Tests used:
[1] = system: isolated gastric fundic gland; test: CAP: Acid Secretion Inhibition Test In Vitro ([14C]-aminopyrine uptake); assay type: cell-based, rabbit (male Japanese White); conditions: Oryctolagus cuniculus, 40 min; 10^-5 M compound, 10^-5 M histamine, rabbit isolated gastric fundic gland, 37° C., 40 minutes; read-out: CAP: acid secretion inhibitory rate
How it was run: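 Fundic gland suspension (1.6×10^6 cells/ml in HEPES nutrient buffer) was stimulated with histamine 10^-5 M plus test compound 10^-5 M (final) and [14C]-aminopyrine 0.05 μCi/ml, then shaken 40 min at 37 °C. Pellet and supernatant were scintillation-counted to give the NaSCN-corrected specific aminopyrine accumulation ratio, in duplicate.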

in vitro = conditions: rabbit, gastric mucosal cells

SMILES | inhibition at 10 µM [1] | cytotoxicity at 4 h, 100 µM (in vitro)
CC(C)=CCOc1ccc(C(=O)NCCN2CCOCC2)cc1 [Example 28] | 88% | -39%
CC(C)=CCC/C(C)=C/COc1ccc(C(=O)NCCN2CCOCC2)cc1 [Example 31] | 99% | 15%
CC(C)=CCOc1ccc(C(=O)NCCN2CCOCC2)cc1OCC=C(C)C [Example 35] | 100% | -17%
